Read-outs that look alike come from different tables or passages of the source.
Columns and labels:
[1] = test system: L. amazonensis axenic amastigotes; assay: alamarBlue viability / concentration-response assay, axenic amastigotes; format: cell-based, Leishmania amazonensis; details: 72 h, axenic amastigotes, read-out: EC50^72 h against L. amazonensis axenic amastigotes
Method: Leishmania amazonensis axenic amastigotes (100 μL, 2×10^6 cells/mL) were added to 96-multiwell plates containing 100 μL of amastigote culture medium with an appropriate compound dilution series. 0.1% DMSO (no drug) served as a positive control (100%), and 5 μM amphotericin B served as a negative growth control (0%). Only internal wells were used to minimize edge effects from evaporation. Axenic amastigotes were incubated at 32° C. with a compound/drug for 72 h prior to measurement. Similarly, the cytotoxicity of each compound was determined against RAW 264.7 cells and HepG2 cell lines, following 72 h incubation at 37° C. (promastigotes at 26° C.).
10% alamarBlue® (Thermo Fisher Scientific) was used to measure the growth of both parasite and mammalian cells. Conversion from a blue oxidized state to a pink reduced state was assessed visually at 6 hr. The fluorescence signal was measured with a BioTek Synergy H1 plate reader (530 nm excitation, 570 nm emission). For bioluminescence assays using L. amazonensisluc, relative luminescence units (RLU) were measured using Britelite Plus (PerkinElmer, USA). Luminescence produced by this luciferase reaction is proportional to the amount of luciferase-expressing, viable L. amazonensisluc. Following five-minute incubation at room temperature, the luminescence was measured with a BioTek Synergy H1 plate reader.
All experiments were conducted as three technical triplicates on the same plate, with at least three independent biological repeats of each plate performed. For all assays, percent growth was expressed as a proportion of the untreated (positive) control (i.e. 100%) and plotted against drug/compound concentration. The concentration was then log10 transformed and EC50 values were determined using nonlinear regression (sigmoidal dose-response/variable slope equation) in GraphPad Prism v5.0 (GraphPad Software, Inc., San Diego, CA).
To identify antileishmanial compounds, a microplate-based alamarBlue® assay was used to quickly triage the 400 drug-like compounds available in the MMV Pathogen Box collection. […] A three-step process was used to screen the Pathogen Box: 1) identify hits against axenic amastigotes, 2) confirm the inhibitory concentrations of these hits against axenic amastigotes, 3) evaluate hits for potency against intracellular parasites using fluorescence and bioluminescence-based intracellular assays. The MMV Pathogen Box resource was tested at two concentrations (5 μM and 1 μM, 72 h endpoint) on axenic amastigotes.
Hits were defined as compounds that, at a concentration of 1 μM, decreased the relative fluorescence intensity signal to ≤70% of that produced by parasites incubated in vehicle (0.06% DMSO) only (FIG. 9).

[2] = test system: intracellular L. amazonensis amastigotes; assay: Intramacrophage bioluminescence assay with luciferase-expressing L. amazonensis; format: cell-based, Leishmania amazonensis; details: Leishmania amazonensis, RAW264.7, 72 h, read-out: EC50^72 h against intracellular L. amazonensis amastigotes
Method: Intracellular EC50s were estimated with L. amazonensisluc parasites. Briefly, RAW 264.7 cells or BM primary Mϕs were starved overnight, then infected with metacyclic promastigotes at a Multiplicity of Infection (MOI) of 15 and incubated for another 24 h at 37° C. The plates containing infected RAW 264.7 cells/BM primary M4s were washed five times with serum-free DMEM. Serially diluted compounds were added, and plates were incubated at 37° C. for 72 hrs. Bioluminescence signal was measured as described above.
RAW 264.7 cells were used to perform a bioluminescence assay with transgenic luciferase-expressing L. amazonensis (FIG. 1C).

## CCc1c(C)nc(-n2nc(C)cc2NC(=O)c2ccccc2SC)[nH]c1=O [MMV676477, N-(1-(5-Ethyl-4-methyl-6-oxo-1,6-dihydropyrimidin-2-yl)-3-methyl-1H-pyrazol-5-yl)-2-(methylthio)benzamide]
[1]
  EC50: 78 nM
[1]; Leishmania amazonensis
  EC50: 79 nM
[2]
  EC50: 510 nM

Source: patent US20240139190A1, “NOVEL ANTIPARASITIC COMPOUNDS AND METHODS” (The Board of Regents of The University of Texas System, priority 2019, published 2024)
